Broadly, the Kd is the equilibrium constant for the complex coming apart.

Data on seven compounds can be found in paper PMC7283271, “ADP binding by the Culex quinquefasciatus mosquito D7 salivary protein enhances blood feeding on mammals” (Nature Communications, 2020).

Assay type in all cases: binding
The target in experiment [1] is T1, CxD7L2 (Culex quinquefasciatus, UniProt B0X6Z1).
T1 construct: gene D7L2; full-length mature protein, C-terminal 6x-His, HEK293
The experiment is described as follows: ITC. On the technique in general: In ITC the heat of successive injections is recorded.

Another experiment deals with CxD7L1 (Culex quinquefasciatus, UniProt A0A1S4K3K8). The experiment is described as follows: ITC. Also on record: gene D7L1; mature protein, C-terminal 6x-His, HEK293.
Sequence of CxD7L1 (A0A1S4K3K8 17-311 limits assumed): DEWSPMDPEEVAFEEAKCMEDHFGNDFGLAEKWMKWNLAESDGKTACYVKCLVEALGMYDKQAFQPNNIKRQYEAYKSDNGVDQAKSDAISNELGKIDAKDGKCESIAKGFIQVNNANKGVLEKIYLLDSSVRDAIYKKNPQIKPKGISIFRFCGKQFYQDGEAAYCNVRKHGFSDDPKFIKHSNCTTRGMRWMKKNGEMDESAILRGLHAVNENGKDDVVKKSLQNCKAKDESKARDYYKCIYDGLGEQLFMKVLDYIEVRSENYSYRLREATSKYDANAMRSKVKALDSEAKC
The target in experiment [2] is T1, CxD7L2. Description: ITC (also with protein saturated with serotonin).

T1 sequence (B0X6Z1 21-313 limits assumed): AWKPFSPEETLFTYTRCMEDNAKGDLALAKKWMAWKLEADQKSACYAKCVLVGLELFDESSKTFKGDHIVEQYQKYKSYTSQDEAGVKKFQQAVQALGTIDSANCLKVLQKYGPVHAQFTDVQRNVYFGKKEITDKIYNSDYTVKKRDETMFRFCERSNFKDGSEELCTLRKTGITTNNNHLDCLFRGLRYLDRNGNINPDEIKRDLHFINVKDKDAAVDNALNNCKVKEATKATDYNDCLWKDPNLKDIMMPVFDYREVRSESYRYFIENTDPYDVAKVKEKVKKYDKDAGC

`CCCCC/C=C\C\C=C/C=C/C=C/[C@@H](SC[C@H](NC(=O)CC[C@H](N)C(=O)O)C(=O)NCC(=O)O)[C@@H](O)CCCC(=O)O` [LTC4]: the Kd at CxD7L2 [1] was found to be 152 nM. With `NCCc1c[nH]c2ccc(O)cc12` [Serotonin], at CxD7L2 [1], the Kd was 7.46 nM. In turn, `Nc1ncnc2c1ncn2[C@@H]1O[C@H](COP(=O)(O)O)[C@@H](O)[C@H]1O` [AMP] registered a Kd on CxD7L1 of 77.5 nM. On CxD7L2 [1], `NCCc1c[nH]cn1` [Histamine] yielded a dissociation constant Kd of 383 nM. Consider `CCCCC/C=C\C\C=C/C=C/C=C/[C@@H](SC[C@H](N)C(=O)NCC(=O)O)[C@@H](O)CCCC(=O)O` [LTD4], for which, on CxD7L2 [2], binding was characterised by a dissociation constant (Kd) of 156 nM. Regarding `CCCCC/C=C\C\C=C/C=C/C=C/[C@@H](SC[C@H](N)C(=O)O)[C@@H](O)CCCC(=O)O` [LTE4], on CxD7L2 [1], the dissociation constant (Kd) is 159 nM.

Take `Nc1ncnc2c1ncn2[C@@H]1O[C@H](COP(=O)(O)OP(=O)(O)OP(=O)(O)O)[C@@H](O)[C@H]1O` [ATP]: the Kd on CxD7L1 came out at 30.8 nM.
